Experimental data published in publication PMC8273890, “Development of [^18F]AldoView as the First Highly Selective Aldosterone Synthase PET Tracer for Imaging of Primary Hyperaldosteronism” (Journal of Medicinal Chemistry, 2021).
Entries after “also recorded” stand apart in the source; their conditions may differ.

Experiments:
human CYP11B2 [1] = tested on: human CYP11B2; set-up: method as in PMID 26005536; details: cited from earlier work
hCYP11B1 = tested on: hCYP11B1; set-up: method as in PMID 26005536; details: read-out: IC50 CYP11B1; cited from earlier work
human CYP11B2 [2] = test: Inhibition of human CYP11B2 (aldosterone synthase), literature values; type: biochemical; details: human isoforms
[3] = Dynamic PET/CT imaging in mice; type: in vivo, female BALB/c mice; details: PET
Protocol: Dynamic PET imaging was performed using a nanoScan PET-CT system manufactured by Mediso (Medical Imaging Systems, Budapest, Hungary). Mice (n = 6) were anaesthetized with isoflurane (2% v/v in oxygen) and placed on the preheated bed of the scanner (set at 38 °C). [^18F]AldoView (7.3 ± 4.1 MBq, formulated in 100–150 μl saline containing 5% ethanol) was injected into the tail vein via intravenous cannulation. After injection, the catheter was carefully removed. The breathing rate and body temperature of the animals were closely monitored during the dynamic PET scans and, if necessary, the isoflurane dose was adjusted. Scans were recorded over 1 h, and the animals were subsequently sacrificed by cervical dislocation. Quantification of the tissue uptake (in % ID/g) was carried out based on the regions of interest manually drawn on the CT using the software package VivoQuant 1.23 (inviCRO, Boston, USA).

[4] = Ex vivo biodistribution in mice (gamma counting); set-up: species or system female BALB/c mice
Protocol: [^18F]AldoView (6.6 ± 1.9 MBq, formulated in saline containing 5% ethanol) was administered intravenously into the tail vein of female wild-type BALB/c mice (n = 3–4 per time point) without anesthesia. At designated time points (15, 30, 60, and 120 min postinjection), animals were anesthetized with isoflurane (4% v/v in oxygen) and the blood was taken by cardiac puncture. Mice were subsequently sacrificed by cervical dislocation. The organs of interest were sampled and weighed, and the radioactivity content was measured by automated gamma counting (PerkinElmer Wizard^2). Results were expressed as % ID/g bodyweight.

[5] = Blood/plasma metabolite analysis by radio-HPLC; type: in vivo, female BALB/c mice
Protocol: Blood metabolite analysis was performed as part of the biodistribution studies (n = 2–3 per time point). Blood samples were collected in heparin-coated tubes, and an aliquot (20 μL) was taken for gamma counting. After centrifugation (5 min, 13,000 rpm), the plasma (∼500 μL) was separated. Plasma proteins were subsequently precipitated with ice-cold acetonitrile (1 mL), and samples were centrifuged (5 min, 13,000 rpm). An aliquot of the supernatant (500 μL) was separated from the pellet and diluted with water (500 μL). The recovery of radioactivity in the supernatant was near quantitative (>95%). Analysis was carried out by radio-HPLC using a Phenomenex Onyx monolithic C-18 column (100 × 10 mm). The mobile phase consisted of water and methanol, and the flow rate was 5 mL/min. An isocratic eluent (10% methanol in water) was used for 3 min, followed by a gradient from 10 to 70% methanol over 7 min.

CYP11B2 = biological target: T1, CYP11B2 (Homo sapiens, UniProt P19099); test: Quantitative phosphorimaging (in vitro autoradiography) in human adrenal tissue sections; type: binding; details: for NSB (non-specific binding): with 25 μM AldoView
T1 construct: from tissue
T1 sequence (P19099 25-503): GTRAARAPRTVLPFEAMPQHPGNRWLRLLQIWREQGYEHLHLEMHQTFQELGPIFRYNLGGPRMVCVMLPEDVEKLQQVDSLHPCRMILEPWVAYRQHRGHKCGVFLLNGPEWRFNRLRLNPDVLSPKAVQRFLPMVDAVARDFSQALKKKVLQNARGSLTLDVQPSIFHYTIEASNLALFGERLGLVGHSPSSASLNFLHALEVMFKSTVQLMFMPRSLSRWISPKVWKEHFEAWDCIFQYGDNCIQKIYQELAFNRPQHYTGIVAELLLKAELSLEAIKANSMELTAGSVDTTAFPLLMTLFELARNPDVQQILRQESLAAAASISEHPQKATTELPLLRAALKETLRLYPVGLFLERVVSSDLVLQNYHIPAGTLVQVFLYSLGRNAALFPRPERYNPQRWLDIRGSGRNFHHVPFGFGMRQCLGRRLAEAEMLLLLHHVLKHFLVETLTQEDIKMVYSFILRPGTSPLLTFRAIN
Excerpt: Adrenal surgical specimens were obtained from patients with Conn’s disease, Cushing’s disease, pheochromocytoma, and adrenal tumors, who had consented to the use of their tissue for research applications. Ethical approval was obtained from the UK Multicentre Research Ethics Committee (06/Q0104/133). Following routine adrenalectomy, surgical specimens were immediately flash frozen using a slurry of isopentane and dry ice. Cryosections (20 μm) obtained from the frozen tissue blocks were mounted on lysine-coated microscope slides and stored at −80 °C.
Thawed tissue sections on microscopic slides were dipped in pentane for 5 s to degrease the tissue. This step was required to avoid nonspecific binding (NSB), in particular to medullar fat. Tissue sections were subsequently rehydrated in tris-buffered saline (TBS; pH = 7.5) for 30 min and subsequently incubated with a solution of [^18F]AldoView in TBS for 60 min (1 mL per slide). For determination of the total binding (TB), [^18F]AldoView was diluted with TBS to a concentration of 2 MBq/mL. For the determination of NSB, a solution of the nonradioactive reference compound in ethanol (3.5 mM) was added to a solution of [^18F]AldoView in TBS and diluted to give a final AldoView concentration of 25 μM and a final [^18F]AldoView concentration of 2 MBq/mL. After incubation, unbound [^18F]AldoView was removed by washing the sections in ice-cold TBS (three times for 5 min) and water (1 min). Internal standards were prepared by serial dilution of the [^18F]AldoView solution used for determination of the TB. Tissue sections and internal standards absorbed on filter paper were left to air-dry and subsequently exposed to a phosphor screen (BAS-IP MS; GE Healthcare) overnight. Phosphorimaging was performed on a Typhoon Trio scanner (GE Healthcare). All phosphorimaging experiments were performed in at least three adjacent tissue sections per case, tissue block, and experimental condition (TB, NSB). Quantification of phosphor images was performed using the analysis software ImageJ (version 1.48).[28] Determination of TB and NSB (in kBq/cm^2; Table S1) was based on correlation curves generated from the internal standards. The specific [^18F]AldoView binding was calculated as the difference between TB and NSB.

[6] = biodistribution, 15 min postinjection
[7] = biodistribution, 30 min postinjection (peak)
[8] = specimen 1b (high), case 1, PHA
[9] = specimen 2b (high), case 2, PHA
[10] = specimen 2c (high), case 2, PHA
[11] = specimen 3b (high), case 3, PHA
[12] = specimen 6a, case 6, pheochromocytoma
[13] = specimen 6b, case 6, pheochromocytoma
[14] = specimen 7a, case 7, adrenal tumor

SMILES: Fc1cncc(-c2nc3cc(F)c(F)cc3n2C2CC2)c1 [Compound 3, 1-Cyclopropyl-5,6-difluoro-2-(5-fluoropyridin-3-yl)-1H-benzo[d]imidazole, reference compound]
- IC50 (human CYP11B2 [1]): 4.7 nM
- IC50 (hCYP11B1): 435 nM

SMILES: Fc1cc2nc(-c3cncc([18F])c3)n(C3CC3)c2cc1F [[^18F]AldoView]
- hCYP11B2 selectivity (B2/B1 ratio) (human CYP11B2 [2]): 93
- time for liver activity to decrease to half the peak value [3]: ≤ 30 min
- peak liver activity ([3]; at 6 min postinjection): 48 ± 11 % ID/g
- level of activity in muscle ([3]; knee extensors, throughout scan (1 h)): < 1.5 % ID/g
- time of peak liver activity ([3]; postinjection): 6 min
- ratio between tracer uptake in adrenals and kidneys ([4]; 15 min postinjection): 1.2
- activity level in kidneys [4, 6]: 5.2 ± 3.5 % ID/g
- activity level in liver [4, 6]: 11.8 ± 4.1 % ID/g
- activity level in small intestines [4, 6]: 4.3 ± 4.7 % ID/g
- activity level in adrenals ([4]; biodistribution, 15 min postinjection, n = 2): 6.1 % ID/g
- activity level in adrenals ([4]; biodistribution, 30 min postinjection): 4.0 ± 2.5 % ID/g
- activity level in kidneys [4, 7]: 5.7 ± 2.9 % ID/g
- activity level in liver [4, 7]: 12.4 ± 5.9 % ID/g
- activity level in adrenals ([4]; biodistribution, 60 min postinjection): 1.8 ± 1.1 % ID/g
- intact parent fraction in blood ([5]; 15 min postinjection): 59%
- intact parent fraction in blood ([5]; 30 min postinjection): 29%
- intact parent fraction in blood ([5]; 60 min postinjection): 21%
- tracer in blood ([5]; 120 min postinjection): still detectable in blood at 120 min, although at low levels
- tracer binding in specimens from control subjects (CYP11B2; n = 3): 2.6 ± 1.8 kBq/cm^2
- tracer binding in CYP11B2-negative areas in specimens from patients with PHA (CYP11B2; n = 4): 3.2 ± 1.1 kBq/cm^2
- SB (specific binding) (CYP11B2; specimen 1a, case 1, PHA): 19.7 kBq/cm2
- TB (total binding) (CYP11B2; specimen 1a, case 1, PHA): 20.1 kBq/cm2
- NSB (non-specific binding) (CYP11B2; specimen 1a, case 1, PHA): 0.4 kBq/cm2
- SB (specific binding) (CYP11B2; [8]): 8.6 kBq/cm2
- TB (total binding) (CYP11B2; [8]): 17.9 kBq/cm2
- NSB (non-specific binding) (CYP11B2; [8]): 9.3 kBq/cm2
- SB (specific binding) (CYP11B2; specimen 1b (low), case 1, PHA): 4.8 kBq/cm2
- TB (total binding) (CYP11B2; specimen 1b (low), case 1, PHA): 5.6 kBq/cm2
- NSB (non-specific binding) (CYP11B2; specimen 1b (low), case 1, PHA): 0.9 kBq/cm2
- SB (specific binding) (CYP11B2; specimen 2a, case 2, PHA): 2.5 kBq/cm2
- TB (total binding) (CYP11B2; specimen 2a, case 2, PHA): 2.8 kBq/cm2
- NSB (non-specific binding) (CYP11B2; specimen 2a, case 2, PHA): 0.3 kBq/cm2
- SB (specific binding) (CYP11B2; [9]): 18.9 kBq/cm2
- TB (total binding) (CYP11B2; [9]): 20.2 kBq/cm2
- NSB (non-specific binding) (CYP11B2; [9]): 1.3 kBq/cm2
- SB (specific binding) (CYP11B2; specimen 2b (low), case 2, PHA): 2.1 kBq/cm2
- TB (total binding) (CYP11B2; specimen 2b (low), case 2, PHA): 2.4 kBq/cm2
- NSB (non-specific binding) (CYP11B2; specimen 2b (low), case 2, PHA): 0.3 kBq/cm2
- SB (specific binding) (CYP11B2; [10]): 19.1 kBq/cm2
- TB (total binding) (CYP11B2; [10]): 20.0 kBq/cm2
- NSB (non-specific binding) (CYP11B2; [10]): 1.0 kBq/cm2
- SB (specific binding) (CYP11B2; specimen 2c (low), case 2, PHA): 3.0 kBq/cm2
- TB (total binding) (CYP11B2; specimen 2c (low), case 2, PHA): 3.3 kBq/cm2
- NSB (non-specific binding) (CYP11B2; specimen 2c (low), case 2, PHA): 0.3 kBq/cm2
- SB (specific binding) (CYP11B2; specimen 3a, case 3, PHA): 6.8 kBq/cm2
- TB (total binding) (CYP11B2; specimen 3a, case 3, PHA): 7.6 kBq/cm2
- NSB (non-specific binding) (CYP11B2; specimen 3a, case 3, PHA): 0.7 kBq/cm2
- SB (specific binding) (CYP11B2; [11]): 10.4 kBq/cm2
- TB (total binding) (CYP11B2; [11]): 15.5 kBq/cm2
- NSB (non-specific binding) (CYP11B2; [11]): 5.1 kBq/cm2
- SB (specific binding) (CYP11B2; specimen 3b (low), case 3, PHA): 3.0 kBq/cm2
- TB (total binding) (CYP11B2; specimen 3b (low), case 3, PHA): 4.3 kBq/cm2
- NSB (non-specific binding) (CYP11B2; specimen 3b (low), case 3, PHA): 1.2 kBq/cm2
- SB (specific binding) (CYP11B2; specimen 4a, case 4, PHA): 3.6 kBq/cm2
- TB (total binding) (CYP11B2; specimen 4a, case 4, PHA): 4.2 kBq/cm2
- NSB (non-specific binding) (CYP11B2; specimen 4a, case 4, PHA): 0.6 kBq/cm2
- SB (specific binding) (CYP11B2; specimen 4b, case 4, PHA): 16.5 kBq/cm2
- TB (total binding) (CYP11B2; specimen 4b, case 4, PHA): 18.4 kBq/cm2
- NSB (non-specific binding) (CYP11B2; specimen 4b, case 4, PHA): 1.9 kBq/cm2
- SB (specific binding) (CYP11B2; specimen 5a, case 5, PHA): 5.1 kBq/cm2
- TB (total binding) (CYP11B2; specimen 5a, case 5, PHA): 5.9 kBq/cm2
- NSB (non-specific binding) (CYP11B2; specimen 5a, case 5, PHA): 0.8 kBq/cm2
- SB (specific binding) (CYP11B2; specimen 5b, case 5, PHA): 4.2 kBq/cm2
- TB (total binding) (CYP11B2; specimen 5b, case 5, PHA): 5.1 kBq/cm2
- NSB (non-specific binding) (CYP11B2; specimen 5b, case 5, PHA): 0.9 kBq/cm2
- SB (specific binding) (CYP11B2; specimen 5c, case 5, PHA): 3.5 kBq/cm2
- TB (total binding) (CYP11B2; specimen 5c, case 5, PHA): 4.5 kBq/cm2
- NSB (non-specific binding) (CYP11B2; specimen 5c, case 5, PHA): 1.0 kBq/cm2
- SB (specific binding) (CYP11B2; [12]): < LOQ; also recorded: limit of quantification
- TB (total binding) (CYP11B2; [12]): < LOQ
- NSB (non-specific binding) (CYP11B2; [12]): < LOQ
- SB (specific binding) (CYP11B2; [13]): 4.0 kBq/cm2
- TB (total binding) (CYP11B2; [13]): 5.3 kBq/cm2
- NSB (non-specific binding) (CYP11B2; [13]): 1.3 kBq/cm2
- SB (specific binding) (CYP11B2; [14]): 0.5 kBq/cm2
- TB (total binding) (CYP11B2; [14]): 1.7 kBq/cm2
- NSB (non-specific binding) (CYP11B2; [14]): 1.2 kBq/cm2
- SB (specific binding) (CYP11B2; specimen 8a, case 8, Cushing's): 3.2 kBq/cm2
- TB (total binding) (CYP11B2; specimen 8a, case 8, Cushing's): 3.7 kBq/cm2
- NSB (non-specific binding) (CYP11B2; specimen 8a, case 8, Cushing's): 0.5 kBq/cm2
- IC50 (human CYP11B2 [1]): 4.7 nM
- IC50 (hCYP11B1): 435 nM
